pIC50: −log10 of the molar value.
Columns and labels:
Assay type in all cases: cell-based
human TLR7 = target: T1, human TLR7 (Homo sapiens, UniProt Q9NYK1); experiment: TLR7 inhibition reporter assay (HEK-Blue SEAP reporter, gardiquimod stimulation); settings: HEK-Blue cells overexpressing human TLR7, SEAP reporter, gardiquimod 7.5 μM, 22 hour incubation
T1 construct: host or cells: HEK-Blue cells
T1 sequence (Q9NYK1 27-1049): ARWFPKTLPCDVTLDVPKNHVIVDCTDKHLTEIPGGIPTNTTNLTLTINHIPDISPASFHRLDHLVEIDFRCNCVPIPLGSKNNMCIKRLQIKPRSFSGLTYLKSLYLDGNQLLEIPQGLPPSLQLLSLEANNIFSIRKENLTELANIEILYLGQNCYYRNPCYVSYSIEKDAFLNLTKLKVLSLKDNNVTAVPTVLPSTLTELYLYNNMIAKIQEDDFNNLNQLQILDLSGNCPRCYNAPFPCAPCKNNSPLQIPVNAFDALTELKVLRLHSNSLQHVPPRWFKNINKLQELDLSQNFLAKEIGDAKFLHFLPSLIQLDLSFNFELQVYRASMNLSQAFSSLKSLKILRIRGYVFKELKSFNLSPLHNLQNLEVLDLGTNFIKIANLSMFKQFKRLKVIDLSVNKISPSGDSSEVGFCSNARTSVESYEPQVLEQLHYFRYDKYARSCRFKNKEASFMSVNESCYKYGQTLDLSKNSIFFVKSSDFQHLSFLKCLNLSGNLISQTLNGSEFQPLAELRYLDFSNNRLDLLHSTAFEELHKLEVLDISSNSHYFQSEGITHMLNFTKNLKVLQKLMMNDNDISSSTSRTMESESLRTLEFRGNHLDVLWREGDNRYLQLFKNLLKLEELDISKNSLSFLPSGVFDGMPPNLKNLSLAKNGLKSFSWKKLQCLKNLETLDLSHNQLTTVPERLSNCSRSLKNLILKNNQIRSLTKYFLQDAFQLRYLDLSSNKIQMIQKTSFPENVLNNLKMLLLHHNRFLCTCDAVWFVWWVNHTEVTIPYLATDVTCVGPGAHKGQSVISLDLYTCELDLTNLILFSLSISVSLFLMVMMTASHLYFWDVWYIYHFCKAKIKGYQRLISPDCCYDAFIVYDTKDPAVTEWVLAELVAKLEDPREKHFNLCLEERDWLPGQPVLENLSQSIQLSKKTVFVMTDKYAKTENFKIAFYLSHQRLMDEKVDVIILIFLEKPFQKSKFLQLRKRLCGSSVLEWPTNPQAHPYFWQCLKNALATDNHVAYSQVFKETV
In short: (§1)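 Compound treatment: 30 min, RT, 0.05 nM–50 μM final. Agonist: TLR7 gardiquimod 7.5 μM; TLR8 R848 15.9 μM; TLR9 ODN2006 5 nM. Incubation 22 h, 37 °C, 5% CO2. Readout SEAP, HEK-Blue Detection.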

human TLR8 = target: T2, human TLR8 (Homo sapiens, UniProt Q9NR97); experiment: TLR8 inhibition reporter assay (HEK-Blue SEAP reporter, R848 stimulation); settings: HEK-Blue cells overexpressing human TLR8, SEAP reporter, R848 15.9 μM, 22 hour incubation
T2 construct: host or cells: HEK-Blue cells
T2 sequence (Q9NR97 27-1041): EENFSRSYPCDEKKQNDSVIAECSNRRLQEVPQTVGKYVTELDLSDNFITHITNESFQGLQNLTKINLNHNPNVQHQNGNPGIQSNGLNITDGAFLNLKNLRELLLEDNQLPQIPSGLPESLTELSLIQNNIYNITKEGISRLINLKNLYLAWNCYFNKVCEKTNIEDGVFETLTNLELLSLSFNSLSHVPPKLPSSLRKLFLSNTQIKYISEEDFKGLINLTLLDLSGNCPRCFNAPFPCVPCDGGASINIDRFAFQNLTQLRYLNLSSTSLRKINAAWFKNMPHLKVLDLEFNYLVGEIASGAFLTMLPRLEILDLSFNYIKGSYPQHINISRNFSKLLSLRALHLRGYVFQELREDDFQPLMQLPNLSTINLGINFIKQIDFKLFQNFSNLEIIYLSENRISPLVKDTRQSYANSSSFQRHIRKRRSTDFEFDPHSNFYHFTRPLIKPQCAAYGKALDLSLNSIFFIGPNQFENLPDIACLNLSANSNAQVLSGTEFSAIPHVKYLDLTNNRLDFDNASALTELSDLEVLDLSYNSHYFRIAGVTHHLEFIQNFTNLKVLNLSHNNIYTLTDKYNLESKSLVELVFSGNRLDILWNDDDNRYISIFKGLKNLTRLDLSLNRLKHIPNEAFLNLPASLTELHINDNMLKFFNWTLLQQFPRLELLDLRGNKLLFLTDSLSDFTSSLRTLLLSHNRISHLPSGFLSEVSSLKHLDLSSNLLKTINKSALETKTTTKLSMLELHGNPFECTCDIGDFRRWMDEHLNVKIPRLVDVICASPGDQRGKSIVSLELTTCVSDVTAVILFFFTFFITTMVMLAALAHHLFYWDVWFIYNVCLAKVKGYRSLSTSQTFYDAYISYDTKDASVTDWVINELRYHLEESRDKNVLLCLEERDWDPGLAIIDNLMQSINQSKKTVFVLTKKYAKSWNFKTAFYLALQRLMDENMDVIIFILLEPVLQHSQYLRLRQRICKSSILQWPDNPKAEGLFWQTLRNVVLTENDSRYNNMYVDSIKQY
In short: as §1

human TLR9 = target: T3, human TLR9 (Homo sapiens, UniProt Q9NR96); experiment: TLR9 inhibition reporter assay (HEK-Blue SEAP reporter, ODN2006 stimulation); settings: HEK-Blue cells overexpressing human TLR9, SEAP reporter, ODN2006 5 nM, 22 hour incubation
T3 construct: host or cells: HEK-Blue cells
T3 sequence (Q9NR96 26-1032): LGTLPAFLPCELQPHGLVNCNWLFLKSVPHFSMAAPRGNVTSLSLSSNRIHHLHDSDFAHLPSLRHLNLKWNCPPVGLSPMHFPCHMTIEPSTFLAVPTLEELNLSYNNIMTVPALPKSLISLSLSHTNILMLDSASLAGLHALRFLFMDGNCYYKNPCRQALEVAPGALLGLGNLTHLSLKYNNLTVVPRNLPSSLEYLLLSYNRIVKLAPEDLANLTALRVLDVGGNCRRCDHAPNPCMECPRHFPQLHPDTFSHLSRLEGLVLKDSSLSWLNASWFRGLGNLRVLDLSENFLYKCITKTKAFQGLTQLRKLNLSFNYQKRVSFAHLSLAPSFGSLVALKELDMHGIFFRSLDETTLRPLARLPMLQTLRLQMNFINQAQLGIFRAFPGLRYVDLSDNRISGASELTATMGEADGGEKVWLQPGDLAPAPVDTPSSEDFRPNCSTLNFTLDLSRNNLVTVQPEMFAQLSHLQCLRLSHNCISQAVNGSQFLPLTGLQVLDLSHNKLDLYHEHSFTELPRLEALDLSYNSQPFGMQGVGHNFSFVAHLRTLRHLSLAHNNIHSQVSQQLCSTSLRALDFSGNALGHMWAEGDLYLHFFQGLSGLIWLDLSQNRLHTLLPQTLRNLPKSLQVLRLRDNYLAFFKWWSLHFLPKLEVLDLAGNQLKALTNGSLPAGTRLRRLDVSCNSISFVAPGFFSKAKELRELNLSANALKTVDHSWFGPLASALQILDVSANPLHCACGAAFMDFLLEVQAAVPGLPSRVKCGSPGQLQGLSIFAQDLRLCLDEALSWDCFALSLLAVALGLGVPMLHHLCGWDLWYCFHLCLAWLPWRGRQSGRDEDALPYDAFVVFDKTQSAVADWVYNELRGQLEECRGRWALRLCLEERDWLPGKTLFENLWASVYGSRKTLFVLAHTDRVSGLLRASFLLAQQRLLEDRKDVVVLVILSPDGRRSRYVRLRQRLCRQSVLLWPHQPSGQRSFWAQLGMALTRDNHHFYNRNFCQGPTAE
In short: as §1

CCCn1cc(CN2CCC(c3ccc4[nH]c(-c5cc(C)c(=O)n(C)c5)c(C(C)C)c4c3)CC2)cn1 [Example 228, 5-(3-isopropyl-5-(1-((1-propyl-1H-pyrazol-4-yl)methyl)piperidin-4-yl)-1H-indol-2-yl)-1,3-dimethylpyridin-2(1H)-one]
pIC50 (human TLR7): 8.44 | pIC50 (human TLR8): 8.37 | pIC50 (human TLR9): 5.37

CC(=O)NC1CCC(N2CCC(c3ccc4[nH]c(-c5cc(C)c(=O)n(C)c5)c(C(C)C)c4c3)CC2)CC1 (stereo not drawn) [Example 229, N-(4-(4-(2-(1,5-dimethyl-6-oxo-1,6-dihydropyridin-3-yl)-3-isopropyl-1H-indol-5-yl)piperidin-1-yl)cyclohexyl)acetamide]
pIC50 (human TLR7): 8.24 | pIC50 (human TLR8): 8.38 | pIC50 (human TLR9): ≤ 4.30

Cc1cc(-c2[nH]c3ccc(C4CCN(C5CCC(C(F)(F)F)CC5)CC4)cc3c2C(C)C)cn(C)c1=O (stereo not drawn) [Example 230, 5-(3-isopropyl-5-(1-(4-(trifluoromethyl)cyclohexyl)piperidin-4-yl)-1H-indol-2-yl)-1,3-dimethylpyridin-2(1H)-one]
pIC50 (human TLR7): 7.95 | pIC50 (human TLR8): 7.64 | pIC50 (human TLR9): 5.26

Cc1cc(-c2[nH]c3ccc(C4CCN(C5CCC(C(F)(F)F)CC5)CC4)cc3c2C(C)C)cn(C)c1=O (stereo not drawn) [Example 231, 5-(3-isopropyl-5-(1-(4-(trifluoromethyl)cyclohexyl)piperidin-4-yl)-1H-indol-2-yl)-1,3-dimethylpyridin-2(1H)-one]
pIC50 (human TLR7): 8.15 | pIC50 (human TLR8): 7.65 | pIC50 (human TLR9): 5.49

Cc1nn(C)cc1CN1CCC(c2ccc3[nH]c(-c4cc(C)c(=O)n(C)c4)c(C(C)C)c3c2)CC1 [Example 232, 5-(5-(1-((1,3-dimethyl-1H-pyrazol-4-yl)methyl)piperidin-4-yl)-3-isopropyl-1H-indol-2-yl)-1,3-dimethylpyridin-2(1H)-one]
pIC50 (human TLR7): 8.54 | pIC50 (human TLR8): 8.96 | pIC50 (human TLR9): 5.22

CC(C)c1c(-c2cc(-c3cccnc3)c(=O)n(C)c2)[nH]c2ccc(C3CCN(C(C)C)CC3)cc12 [Example 235, 5-(3-isopropyl-5-(1-isopropylpiperidin-4-yl)-1H-indol-2-yl)-1-methyl-[3,3′-bipyridin]-2(1H)-one]
pIC50 (human TLR7): 7.96 | pIC50 (human TLR8): 8.28 | pIC50 (human TLR9): 5.75

CC(C)c1c(-c2cc(-c3cccnc3)c(=O)n(C)c2)[nH]c2ccc(C3CCN(CCO)CC3)cc12 [Example 236, 5-(5-(1-(2-hydroxyethyl)piperidin-4-yl)-3-isopropyl-1H-indol-2-yl)-1-methyl-[3,3′-bipyridin]-2(1H)-one]
pIC50 (human TLR7): 8.34 | pIC50 (human TLR8): 8.01 | pIC50 (human TLR9): 6.01

Cc1c(-c2[nH]c3ccc(C4CCN(C(C)C)CC4)cc3c2C(C)C)cn(C)c(=O)c1-c1cccnc1 [Example 237, 5-(3-isopropyl-5-(1-isopropylpiperidin-4-yl)-1H-indol-2-yl)-1,4-dimethyl-[3,3′-bipyridin]-2(1H)-one]
pIC50 (human TLR7): 6.74 | pIC50 (human TLR8): 7.70 | pIC50 (human TLR9): 5.68

Cc1c(-c2[nH]c3ccc(C4CCN(C(C)C)CC4)cc3c2C(C)C)cn(C)c(=O)c1Cl [Example 238, 3-chloro-5-(3-isopropyl-5-(1-isopropylpiperidin-4-yl)-1H-indol-2-yl)-1,4-dimethylpyridin-2(1H)-one]
pIC50 (human TLR7): 8.14 | pIC50 (human TLR8): 7.93 | pIC50 (human TLR9): 5.08

Cc1c(-c2[nH]c3ccc(C4CCN(C5CCOCC5)CC4)cc3c2C(C)C)cn(C)c(=O)c1Cl [Example 239, 3-chloro-5-(3-isopropyl-5-(1-(tetrahydro-2H-pyran-4-yl)piperidin-4-yl)-1H-indol-2-yl)-1,4-dimethylpyridin-2(1H)-one]
pIC50 (human TLR7): 8.27 | pIC50 (human TLR8): 8.28 | pIC50 (human TLR9): 5.24

Cc1c(-c2[nH]c3ccc(C4CCN(C)CC4)cc3c2C(C)C)cn(C)c(=O)c1Cl [Example 240, 3-chloro-5-(3-isopropyl-5-(1-methylpiperidin-4-yl)-1H-indol-2-yl)-1,4-dimethylpyridin-2(1H)-one]
pIC50 (human TLR7): 9.00 | pIC50 (human TLR8): 8.43 | pIC50 (human TLR9): 5.59

CC(=O)N1CCC(c2ccc3[nH]c(-c4cn(C)c(=O)c(Cl)c4C)c(C(C)C)c3c2)CC1 [Example 241, 5-(5-(1-acetylpiperidin-4-yl)-3-isopropyl-1H-indol-2-yl)-3-chloro-1,4-dimethylpyridin-2(1H)-one]
pIC50 (human TLR7): 8.08 | pIC50 (human TLR8): 8.32 | pIC50 (human TLR9): 5.31

CCCN1CCC(c2ccc3[nH]c(-c4cn(C)c(=O)c(Cl)c4C)c(C(C)C)c3c2)CC1 [Example 242, 3-chloro-5-(3-isopropyl-5-(1-propylpiperidin-4-yl)-1H-indol-2-yl)-1,4-dimethylpyridin-2(1H)-one]
pIC50 (human TLR7): 8.49 | pIC50 (human TLR8): 8.29 | pIC50 (human TLR9): 5.57

Cc1c(-c2[nH]c3ccc(C4CCN(C(CCO)CCO)CC4)cc3c2C(C)C)cn(C)c(=O)c1Cl [Example 243, 3-chloro-5-(5-(1-(1,5-dihydroxypentan-3-yl)piperidin-4-yl)-3-isopropyl-1H-indol-2-yl)-1,4-dimethylpyridin-2(1H)-one]
pIC50 (human TLR7): 8.85 | pIC50 (human TLR8): 8.04 | pIC50 (human TLR9): 5.75

From patent US11447466B2, “Substituted indole compounds useful as inhibitors of TLR7/8/9” (BRISTOL-MYERS SQUIBB COMPANY, priority 2017, dated 2022)
